Laboratory results taken from patent EP0558245A1, “Heterobicyclic compounds as antagogists of alpha-1 adrenergic and SHT1A receptors” (priority 1992, dated 1993).
Counter-ions that a name gives are not always drawn. Like-named read-outs stand apart in the source and are kept apart here.

Legend:
α₁ receptors = assay: [3H]prazosin binding (α1 receptors), rat cerebral cortex membranes; conditions: for IC50: rat cerebral cortex crude membranes, [3H]prazosin 0.35 nM, 25°C 30 min, read-out: Receptor Binding IC50 (nM) α1
5HT1A receptors = biological target: T1, 5HT1A receptors (Rattus norvegicus, UniProt P19327); assay: [3H]8-OH-DPAT binding (5HT1A receptors), rat hippocampus membranes; conditions: for IC50: rat hippocampus crude membranes, [3H]8-OH-DPAT 1.0 nM, 25°C 30 min, read-out: Receptor Binding IC50 (nM) 5-HT1a
T1 construct: Rat hippocampi were homogenized; from tissue; host or cells: rat hippocampus membranes
T1 sequence (P19327 1-422): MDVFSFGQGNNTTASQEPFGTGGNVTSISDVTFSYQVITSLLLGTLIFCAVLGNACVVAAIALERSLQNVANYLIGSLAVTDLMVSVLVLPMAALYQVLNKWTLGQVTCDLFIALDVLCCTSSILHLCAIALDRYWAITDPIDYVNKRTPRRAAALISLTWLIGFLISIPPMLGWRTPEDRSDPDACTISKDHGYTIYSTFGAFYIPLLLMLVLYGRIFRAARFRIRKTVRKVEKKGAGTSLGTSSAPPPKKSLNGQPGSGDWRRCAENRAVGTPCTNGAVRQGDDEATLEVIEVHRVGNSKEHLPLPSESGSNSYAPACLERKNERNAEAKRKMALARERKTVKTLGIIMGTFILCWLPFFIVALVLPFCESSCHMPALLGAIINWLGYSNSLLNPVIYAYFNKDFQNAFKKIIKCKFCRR

[1] = Acute toxicity in mice after intraperitoneal and oral administration; conditions: mouse, in vivo, female albino Swiss mice, mortality recorded 7 days after administration
Method in brief: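 Female albino Swiss mice (20-30 g) dosed i.p. or orally at four log-scaled doses in 0.5% Methocel (10 ml/kg), 4 mice/dose. Mortality recorded at 7 days; LD₅₀ with fiducial limits by Weil's method.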

rat bladder strips = assay: K+-induced contractions of rat bladder strips; type: cell-based; conditions: 80 mM KCl, drug added 30 minutes before
Description: The whole bladder of the rat was removed and immediately placed in Krebs solution warmed at 37°C. […] Each strip was placed in a 10 ml organ bath and connected, under a constant load of 1 g, to an isometric strain gauge (DY-1 Basile, Comerio, Varese, Italy). […] After a 60 minutes equilibration period the strips were exposed to 80 mM KCl (final concentration). […] When the tonic contraction was stable, the strips were washed and 30 minutes later a new contraction was induced. After having recorded two or more reproducible responses, one concentration of the tested drugs was added to the bath and 30 minutes later a new contraction was induced. The experimental groups consisted of at least two preparations taken from different animals for each concentration of drug tested. The IC₅₀ values of inhibition of agonist-induced contractions were evaluated by linear regression analysis.

[2] = ip, intraperitoneal, read-out: Acute Toxicity in Mice LD50 (mg/kg) i.p.
[3] = oral, read-out: Acute Toxicity in Mice LD50 (mg/kg) p.o.
[4] = phasic contraction, read-out: K+ Stimulation of Rat Bladder IC50 (μM) Contractions Phasic
[5] = tonic contraction, read-out: K+ Stimulation of Rat Bladder IC50 (μM) Contractions Tonic

Row | SMILES | IC50 (α₁ receptors) [nM] | IC50 (5HT1A receptors) [nM] | LD50 at 168 h [1, 2] [mg/kg] | LD50 at 168 h [1, 3] [mg/kg] | IC50 (rat bladder strips; [4]) [µM] | IC50 (rat bladder strips; [5]) [µM] | affinity for the α₁-adrenergic receptors (α₁ receptors; statement in words) | affinity for the 5HT1A-serotoninergic receptors (5HT1A receptors; statement in words)
1 | COc1ccccc1N1CCN(CCSCc2cccc3c(=O)c(C)c(-c4ccccc4)oc23)CC1.Cl [Example 29, 8-{2-[4-(2-methoxyphenyl)-1-piperazinyl]-ethylthiomethyl}-3-methyl-4-oxo-2-phenyl-4H-1-benzopyran hydrochloride] | 86 | 45 | 730 | > 3000 | 10 | 10 |  | 
2 | COc1cccc(OC)c1OCCNCCOc1cccc2c(=O)c(C)c(-c3ccccc3)oc12.Cl [Example 44, 8-{2-[2-(2,6-dimethoxyphenoxy)-ethylamino]-ethoxy}-3-methyl-4-oxo-2-phenyl-4H-1-benzopyran hydrochloride] | 685 | 201 | 84 | 399 | 0.6 | 0.5 |  | 
3 | COc1ccccc1N1CCN(CCN(C)C(=O)c2cccc3c(=O)c(C)c(-c4ccccc4)oc23)CC1.Cl [Example 16, 8-{N-methyl-2-[4-(2-methoxyphenyl)-1-piperazinyl]-ethylcarbamoyl}-3-methyl-4-oxo-2-phenyl-4H-1-benzopyran monohydrochloride] | 220 | 1050 | 345 | 778 | 1.6 | 2.2 |  | 
4 | COc1ccccc1N1CCN(CCNc2cccc3c(=O)c(C)c(-c4ccccc4)oc23)CC1.Cl.Cl [Example 32, 8-{2-[4-(2-methoxyphenyl)-1-piperazinyl]-ethylamino}-3-methyl-4-oxo-2-phenyl-4H-1-benzopyran dihydrochloride] | 119 | 46 | 301 | > 2000 | 10 | > 10 |  | 
5 | COc1ccccc1N1CCN(CCCCNc2cccc3c(=O)c(C)c(-c4ccccc4)oc23)CC1 [Example 34, 8-{4-[4-(2-methoxyphenyl)-1-piperazinyl]-butylamino}-3-methyl-4-oxo-2-phenyl-4H-1-benzopyran hydrochloride hemihydrate] | 30 | 34 | > 500 |  | 2.8 | 3.6 |  | 
6 | COc1ccccc1N1CCN(CCC(O)c2cccc3c(=O)c(C)c(-c4ccccc4)oc23)CC1.Cl (stereo not shown) [Example 20, 8-{1-Hydroxy-3-[4-(2-methoxyphenyl)-1-piperazinyl]-propyl}-3-methyl-4-oxo-2-phenyl-4H-1-benzopyran hydrochloride] | 169 | 85 | 297 | 594 | 2.7 | 2.5 |  | 
7 | Cc1c(-c2ccccc2)oc2c(C(=O)OCCN3CCCCC3)cccc2c1=O [Flavoxate, 8-(2-piperidinoethoxycarbonyl)-3-methyl-4-oxo-2-phenyl-4H-1-benzopyran, reference compound] | > 1000 | > 1000 | 385 | 808 | 13 | 13 | practically devoid of affinity | practically devoid of affinity
8 | COc1ccccc1N1CCN(CCCNc2cccc3c(=O)c(C)c(-c4ccccc4)oc23)CC1 [Example 33, 8-{3-[4-(2-methoxyphenyl)-1-piperazinyl]-propylamino}-3-methyl-4-oxo-2-phenyl-4H-1-benzopyran hydrochloride 2.75-hydrate] | 17 | 38 | 399 | > 2000 | 10 | 10 |  | 
